Laboratory results from patent publication US20230090552A1, “ALK5 INHIBITOR CONJUGATES AND USES THEREOF” (Synthis Therapeutics, Inc., priority 2020, published 2023).

Key:
[1] = tested on: IPF disease progression; settings: patients with mild-moderate disease; cited from earlier work
[2] = biological target: T1, ALK5 (Homo sapiens, UniProt P36897); assay: recombinant kinase assays (IC50 and Ki); format: biochemical; settings: versus Compound N
T1 sequence (P36897 34-503): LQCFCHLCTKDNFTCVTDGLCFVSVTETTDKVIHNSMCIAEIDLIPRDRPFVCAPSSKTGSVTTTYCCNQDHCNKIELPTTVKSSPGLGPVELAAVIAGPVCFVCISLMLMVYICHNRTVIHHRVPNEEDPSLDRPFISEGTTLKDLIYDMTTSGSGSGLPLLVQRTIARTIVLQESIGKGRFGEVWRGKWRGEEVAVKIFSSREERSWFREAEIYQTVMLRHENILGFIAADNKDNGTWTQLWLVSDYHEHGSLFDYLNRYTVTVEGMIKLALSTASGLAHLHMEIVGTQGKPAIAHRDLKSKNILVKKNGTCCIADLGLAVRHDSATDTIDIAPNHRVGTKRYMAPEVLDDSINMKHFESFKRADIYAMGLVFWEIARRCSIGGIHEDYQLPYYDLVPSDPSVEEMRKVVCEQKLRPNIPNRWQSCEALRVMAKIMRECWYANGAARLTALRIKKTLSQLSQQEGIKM
From the text: Compound N was compared to Compound C in a number of in vitro assays.

SMILES | reduced risk of IPF disease progression [1] [%] | fold more potent than Compound N in the kinase assays [2] [fold]
COC(=O)c1ccc2c(c1)NC(=O)/C2=C(\Nc1ccc(N(C)C(=O)CN2CCN(C)CC2)cc1)c1ccccc1 [nintedanib] | 50 | 
Cc1ccc(=O)n(-c2ccccc2)c1 [pirfenidone] | 50 | 
CNCCOc1ccc(-c2cc(-c3c[nH]nc3-c3cccc(C)n3)ccn2)cc1 [Compound C, N-methyl-2-(4-(4-(3-(6-methylpyridin-2-yl)-1H-pyrazol-4-yl)pyridin-2-yl)phenoxy)ethan-1-amine] |  | 10
